Assay results as given in US7378438B2, “Beta-agonist compounds comprising nitric oxide donor groups and reactive oxygen species scavenger groups and their use in the treatment of respiratory disorders” (Yissum Research Development Company of the Hebrew …, priority 2002, dated 2008).

Experiments:
[1] = test system: NO-guanylyl cyclase pathway; assay: Cyclic nucleotide (cGMP) assay in tracheal rings; format: cell-based, guinea pigs; details: FIG. 2
Protocol: (§1) Male Hartley guinea pigs (500-600 g) were anesthetized by intraperitoneal injection of ketamine and xylazine (50 and 10 mg/kg, respectively). The heart and lungs were excised en bloc and tracheas were removed and placed in Krebs-Henseleit buffer composed of (mM): NaCl 118, KCl 5.4, NaH2PO4 1.01, NaHCO3 25, MgSO4 0.69, […], glucose 11.1, pH 7.4. Tracheas were then dissected free from surrounding fat and connective tissue and cut into 1-2-mm thick rings. The tracheal rings were then placed in buffer and continuously gassed with 95% O2 and 5% CO2.
Tracheal rings in Krebs-Heneseleit solution were exposed to a 5-100 μM of the test compound for 30-90 seconds. Reaction was terminated by the addition of ice-cold 10% trichloroacetic acid and rapidly frozen in ethanol-saturated dry ice. In the methylene blue experiment, rings were pre-exposed methylene blue, a guanylyl cyclase inhibitor, for 30 min. Tissues were then individually pulverized with a glass homogenizer and centrifuged at 8000×g for 5 min. The clear supernatant was extracted with water-saturated ether and assayed for cGMP using commercially available radioimmunoassay kits as described by the manufacturer (Amersham Biosciences, Piscataway, N.J.).

tracheal rings = assay: Relaxation studies on pre-contracted tracheal rings; format: cell-based, guinea pigs; details: FIG. 1; tracheal rings contracted with methacholine, histamine or leukotriene D4; compared with salbutamol and compound 2a
Protocol: The assays as described here are also described in, for example, U.S. Pat. No. 4,992,474 and Jansen et al.(1992) J. Pharmacol. Exptl. TherapeuticsI 261(1):154-160.
as §1
Tracheal rings were suspended on stainless steel hooks in 10 ml of oxygenated (95% O2, 5% CO2) Krebs-Henseleit buffer at 37° C. and connected to transducer (Experimetria Model) for recording changes in isometric force. The tracheal rings were equilibrated for 60 min under a load of 1 g and then primed twice by exposure to 100 μM methacholine. Tissues were contacted with methacholine, histamine, or leukotriene D4 at concentrations determined to approximately generate 50% of maximal tone, after which cumulative relaxation-response curves were constructed. […]

5-(2-tert-Butylamino-1-S-nitroso-ethyl)-1,1,3,3-tetramethyl-isoindolin-2-yloxyl [compound 2]
cGMP response of tracheal rings ([1]; 5-100 μM test compound for 30-90 seconds, radioimmunoassay, compared with control and salbutamol): elevates the production of cGMP | cGMP response of tracheal rings in the presence of methylene blue (MB) ([1]; rings pre-exposed to methylene blue, a guanylyl cyclase inhibitor, for 30 min): reduces the efficacy of compound 2 | relaxation response (relax. %) versus log of concentration (tracheal rings): more effective relaxant compound than either salbutamol or the non-nitrosolated precursor of compound 2, compound 2a
